Data taken from patent US6306881A, “Anti-inflammatory agents” (British Biotech Pharmaceuticals, priority 1998, dated 2001).

Experiments:
[1] = biological target: T1, LTA4-hydrolase (Rattus norvegicus, UniProt P30349); test: Inhibition of LTA4 hydrolase activity (LTB4 formation by radioimmunoassay); assay type: biochemical; details: crude fraction from rat lung, 1 minute at 37° C.
T1 construct: was prepared as a crude fraction from rat lung tissue; from tissue; host or cells: rat lung tissue, crude fraction
T1 sequence (P30349 1-611): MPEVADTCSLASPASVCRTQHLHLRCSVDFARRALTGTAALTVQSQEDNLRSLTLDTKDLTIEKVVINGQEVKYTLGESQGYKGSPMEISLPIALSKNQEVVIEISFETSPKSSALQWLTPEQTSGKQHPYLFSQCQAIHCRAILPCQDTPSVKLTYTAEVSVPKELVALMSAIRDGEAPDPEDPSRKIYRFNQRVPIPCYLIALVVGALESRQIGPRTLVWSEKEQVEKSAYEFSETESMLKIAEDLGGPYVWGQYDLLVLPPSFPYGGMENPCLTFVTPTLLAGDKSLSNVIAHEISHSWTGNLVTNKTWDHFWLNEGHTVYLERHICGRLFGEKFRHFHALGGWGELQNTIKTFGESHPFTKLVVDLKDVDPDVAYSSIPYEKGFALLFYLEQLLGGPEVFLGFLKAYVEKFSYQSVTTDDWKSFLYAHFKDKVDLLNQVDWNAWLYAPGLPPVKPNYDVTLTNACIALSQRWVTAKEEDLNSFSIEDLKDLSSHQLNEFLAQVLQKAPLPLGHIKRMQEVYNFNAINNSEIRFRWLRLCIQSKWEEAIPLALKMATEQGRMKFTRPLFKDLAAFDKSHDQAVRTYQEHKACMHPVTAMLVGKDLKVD
Description: LTA4 -hydoiase was prepared as a crude fraction from rat lung tissue. The sodium salt of LTA4 was incubated with the enzyme and test compounds at 10 μM for 1 minute at 37° C. The reaction was terminated by the addition of ice-cold methanol. Formation of LTB4 was assessed by radioimmunoassay. Results are expressed as a percentage inhibition of LTA4 hydrolase activity.

[2] = tested on: cells; details: cited from earlier work
[3] = tested on: LTA4 hydrolase; details: isolated enzyme; T. D. Penning et al, 1995; cited from earlier work
[4] = tested on: male Lewis rats; test: Rat Adjuvant Arthritis Model; assay type: in vivo; details: Day 10 to Day 21, vs vehicle, P<0.05
Description: Rat Adjuvant Arthritis Model
Adjuvant arthritis was induced in male Lewis rats on Day 0, using a suspension of mycobacterium butyncum in mineral oil, inoculated subcutaneously, into the base of the tail. The volume of the hind paws was measured regularly to assess the time course of disease progression. […] Nine animals were allocated to each group. Animals received their first treatment on Day 10, either vehicle (2% DMSO in PBSiTween (0.01%v/v)) or test compound, formulated as a suspension in the vehicle. Treatment was administered as an intraperitoneal bolus injection, once daily, for the duration of the study. The study was ended on Day 21. The percent increase in mean paw volume from Day 10 to Day 21 was calculated for each animal and the compound treated groups compared to the vehicle treated control group.

[5] = tested on: Leukotriene Synthesis by Rat Basophilic Leukaemia Cells; test: Inhibition of Leukotriene Synthesis by Rat Basophilic Leukaemia Cells (RBL-1, A23187 stimulated, LTB4); assay type: cell-based; details: RBL-1 cells, 4.75 hours preincubation, 10 μM A23187, 15 minutes at 37° C., value estimated, read-out: IC50 (leukotriene B4 synthesis)
Description: Inhibition of Leukotriene Synthesis by Rat Basophilic Leukaemia Cells
The rat basophilic leukaemia cell line RBL-1 was obtained from ATCC or ECACC and cultured in Dulbecco's modified Eagle's medium (DMEM) supplemented with 10% foetal bovine serum, non-essential amino acids, sodium pyruvate, penicillin, streptomycin and 2mM glutamine, at 37° C. in an atmosphere of 5% CO2 in air, as recommended by the culture collection.
RBL-1 cells were harvested during log growth, washed and resuspended in Hanks Balanced Salt Solution, without calcium chloride and magnesium chloride, supplemented with 10% foetal bovine serum and penicillin, streptomycin, and 2mM glutamine and adjusted to a final cell concentration of 1.25×10^5 cells/ml. Cells incubated in the presence of the appropriate concentration of inhibitor or vehicle for 4.75 hours at 37° C. Cells then transferred to ice for 15 minutes. Cells washed by centrifugation and resuspension in prechilled Phosphate Buffered Saline, with calcium chloride and magnesium chloride, supplemented with the appropriate concentration of test sample. […]
Treated cells then exposed to 10 μM A23187 for 15 minutes at 37° C. […] The levels of leukotriene B4 then determined in the cell free supernatant using the Leukotriene B4 [^3 H] assay system from Amersham Pharmacia Biotech.

| Structure (SMILES) | inhibition at 10 µM [1] [%] | ability to penetrate cells [2] | LTA4 hydrolase inhibitory activity [3] | inhibition of paw swelling ([4]; 30mg/kg i.p. once daily) [%] | inhibition of paw swelling ([4]; 100mg/kg i.p. once daily) [%] | IC50 [5] [µM] |
| --- | --- | --- | --- | --- | --- | --- |
| C=CC[C@H](C(=O)NO)[C@@H](CC(C)C)C(=O)N[C@H](C(=O)OC1CCCC1)c1ccccc1 [Example 40, 2S-(3S-Hydroxycarbamoyl-2R-isobutyl-hex-5-enoylamino)-2-phenylethanoic acid cyclopentyl ester] | 75 | – | – | – | – | – |
| CC(C)C[C@H](NC(=O)[C@@H](O)[C@H](N)Cc1ccccc1)C(=O)O [bestatin] | – | unable to effectively penetrate cells | exhibit LTA4 hydrolase inhibitory activity against isolated enzyme | – | – | – |
| C[C@H](CS)C(=O)N1CCC[C@H]1C(=O)O [captopril] | – | unable to effectively penetrate cells | exhibit LTA4 hydrolase inhibitory activity against isolated enzyme | – | – | – |
| C=CC[C@H](C(=O)NO)[C@@H](CC(C)C)C(=O)N[C@@H](Cc1ccccc1)C(=O)OC1CCCC1 [Example 19, 2S-(3S-Hydroxycarbamoyl-2R-isobutyl-hex-5-enoylamin)-3-phenylpropionic acid cyclopentyl ester] | 78 | – | – | 60 | 77 | 0.002 |
| C[C@H](NC(=O)[C@@H](CC(=O)NO)Cc1ccccc1)C(=O)O [kelatorphan] | 80 | unable to effectively penetrate cells | exhibit LTA4 hydrolase inhibitory activity against isolated enzyme | – | – | 0.35 |
